Patent US9862746B2, “Compositions and methods relating to hindering DOT1L recruitment by MLL-fusion proteins” (The Regents of the University of Michigan, priority 2013, dated 2018)
Where a SMILES comes first, the peptide text is derived from it. Where no end group is shown, it is not given here.

Legend:
[1] = biological target: T1, Flag-DOT1L and Myc-CxxC-AF9 interaction (Homo sapiens, UniProt P42568+Q03164); experiment: Co-immunoprecipitation in HEK 293 cell lysate; type: binding; settings: HEK 293 whole cell lysate pre-incubated with peptide
T1 construct: expressed in transfected cells; host or cells: HEK 293
Method: (§1) To assess whether DOT1L 10-mer peptide can bind and block the interaction between full length DOT1L and MLL-fusion proteins HEK 293 cells were transiently co-transfected ith Flag-tagged human DOT1L protein and Myc-tagged CxxC-AF9 protein. The whole cell lysate was pre-incubated with different concentrations of DOT1L 10-mer peptide and co-immunoprecipitation (co-IP) experiments were performed. […] To further probe and confirm the cellular target for DOT1L 10-mer peptide, a biotinylated DOT1L 10-mer peptide was synthesized. To determine the binding affinity of this labeled peptide FP competitive based assay was used and tested together with corresponding unlabeled DOT1L 10 mer peptide.
Cell Culture, Transfections, and Immunoprecipitation—HEK293 cells were plated in 100 mm culture dishes and cultured in Dulbecco's modified Eagle's medium (DMEM) supplemented with 10% FBS and antibiotics. Co-transfection with FLAG-DOTL and Myc-CxxC-AF9 was performed using Lipofectamine 2000 (Invitrogen). […] After incubation, the beads were washed extensively, boiled in SDS loading buffer and analyzed by western blotting using mouse monoclonal anti-FLAG M2 (Sigma-Aldrich) and goat monoclonal anti-Myc tag (Abcam) antibody.

AF9 [2] = biological target: T2, AF9 (Homo sapiens, UniProt P42568); experiment: Solution competitive SPR assay of peptides, AF9-DOT1L interaction; type: binding; set-up: against AF9(497-568) and ENL (489-559) proteins running different tested concentrations over CM5 chip; GB1 (pGB1-LIC vector); made in house; host or cells: Escherichia coli BL21 (DE3); settings: read-out: IC50 against AF9 (block PPI DOT1L/AF9)
T2 sequence (P42568 497-568): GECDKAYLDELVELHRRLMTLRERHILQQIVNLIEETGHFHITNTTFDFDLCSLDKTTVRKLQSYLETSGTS
Method: (§2) Solution competitive SPR based assay was performed to determine the IC50 values of DOT1L peptides. […] Response units (RU) were measured at 15 seconds in the dissociation phase and the specific binding was calculated by subtracting the control surface (Fcl) signal from the surfaces with immobilized Mocr-DOT1L. IC50 values were determined by non-linear least squares analysis using Graph Pad Prism 5.0 software.

MBP-ENL (489-559) = biological target: T3, MBP-ENL (489-559) (Homo sapiens, UniProt Q03111); experiment: Isothermal titration calorimetry with MBP-ENL; type: binding; settings: ITC, MBP-tagged ENL, 1:1 stoichiometry; read-out: KD to ENL protein
T3 construct: MBP-ENL (489-559) was dialysed extensively; made in house; host or cells: Escherichia coli BL21 (DE3)
T3 sequence (Q03111 489-559): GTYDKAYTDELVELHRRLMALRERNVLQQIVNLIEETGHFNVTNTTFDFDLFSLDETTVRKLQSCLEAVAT
Method: (§3) Isothermal titration calorimetry—ITC was carried out using a Nano-ITC Micro Calorimeter (TA Instruments) at 20° C. MBP-ENL (489-559) was dialysed extensively against 50 mM Na2HPO4, (pH 7.5) and 100 mM NaCl, and 80 μM was used for titration studies of DOT1L 16-mer and 10-mer peptides, and 110 μM for DOT1L 7-mer titration. Tested peptides dissolved in the same buffer at 400 μM (DOT1L 16-mer and 10-mer) or 500 μM (DOT1L 7-mer) were tested by injecting 2 μl aliquots into the protein sample, at time intervals of […], to ensure that the titration peak returned to the baseline. The ITC data were analyzed by NanoAnalyze software package using a one site-binding model.

ENL = biological target: T4, ENL (Homo sapiens, UniProt Q03111); experiment: Solution competitive SPR assay of peptides, ENL-DOT1L interaction; type: binding; settings: read-out: IC50 against ENL (block PPI DOT1L/ENL)
T4 construct: against AF9(497-568) and ENL (489-559) proteins running different tested concentrations over CM5 chip; MBP (pMSCG9-LIC vector); made in house; host or cells: Escherichia coli BL21 (DE3)
T4 sequence (Q03111 489-559): T3 sequence (Q03111 489-559)
Method: as §2

AF9 [3] = biological target: T2, AF9; experiment: Optimized competitive FP binding assay (N-Flu-DOT1L / AF9); set-up: the recombinant GB1-AF9 protein (residues 497-568); made in house; host or cells: Escherichia coli BL21 (DE3)
MBP tag = MBP tag (Escherichia coli, UniProt P0AEX9); experiment: Isothermal titration calorimetry with MBP tag only; type: binding; settings: ITC
Method: FIG. 4 describes isothermal titration calorimetry (ITC) of MBP tag only (80 μM) with a solution of DOT1L 16-mer (400 μM). The raw data are shown in the upper panel, and the integrated heat data are shown in the lower panel.
as §3

Myc-CxxC-AF9 = biological target: T5, Myc-CxxC-AF9 (Homo sapiens, UniProt P42568+Q03164); experiment: Streptavidin-biotin pull-down in HEK 293 cell lysate; type: binding; settings: HEK 293 cell lysates
T5 construct: expressed in transfected cells; host or cells: HEK293
Method: as §1
Pull-down assay—HEK293 cells transfected with Myc-CxxC-AF9 were lysed in BC-300 lysis buffer in a same way as the immunoprecipitation experiment. The supernatant was pre-cleared for 2 h in streptavidin agarose beads (Thermal Scientific). The pre-cleared lysates were incubated with different concentrations of biotin-labeled DOT1L 10 mer peptide at 4° C. overnight. The next day, the cell lysate were incubated with streptavidin agarose at 4° C. for 2 h. After extensive washing the beads with the BC-300 lysis buffer without NP-40, the pull down samples were applied to SDS-PAGE electrophoresis and pull-down Myc-CxxC-AF9 protein was probed with goat monoclonal anti-Myc tag antibody (Abcam).

T1 sequence (Q03164+P42568 fused): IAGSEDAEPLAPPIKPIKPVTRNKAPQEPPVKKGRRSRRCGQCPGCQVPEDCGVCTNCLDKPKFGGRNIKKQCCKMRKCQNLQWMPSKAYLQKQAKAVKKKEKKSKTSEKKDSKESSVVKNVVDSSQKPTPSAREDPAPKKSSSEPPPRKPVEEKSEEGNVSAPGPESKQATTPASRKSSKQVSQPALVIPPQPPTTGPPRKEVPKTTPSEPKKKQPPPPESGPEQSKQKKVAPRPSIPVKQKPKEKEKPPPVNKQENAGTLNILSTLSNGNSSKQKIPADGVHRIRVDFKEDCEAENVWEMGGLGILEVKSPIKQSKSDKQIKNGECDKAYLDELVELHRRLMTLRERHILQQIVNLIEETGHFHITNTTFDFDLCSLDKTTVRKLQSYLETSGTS
T5 sequence (Q03164+P42568 fused): as above

CC[C@H](C)[C@H](NC(=O)[C@@H]1CCCN1C(=O)[C@H](CC(C)C)NC(C)=O)C(=O)N[C@@H](CO)C(=O)N[C@H](C(=O)N1CCC[C@H]1C(=O)N[C@@H](CC(C)C)C(=O)N[C@@H](CO)C(=O)N[C@H](C(=O)N[C@H](C(N)=O)C(C)C)[C@@H](C)O)[C@@H](C)CC [DOT1L 10mer] (Ac-LPISIPLSTV-NH2)
disruption of DOT1L / CxxC-AF9 interaction (co-IP) [1]: blocks the interaction of cellular DOT1L with CxxC-AF9 in a dose dependent manner
IC50 (AF9 [2]): 490 nM
Kd (MBP-ENL (489-559)): 1100 nM
IC50 (ENL): 1340 nM
Ki (AF9 [3]): 68 ± 15 nM

CC[C@H](C)[C@H](NC(=O)[C@@H]1CCCN1C(=O)[C@H](CC(C)C)NC(C)=O)C(=O)N[C@@H](CO)C(=O)N[C@H](C(=O)N1CCC[C@H]1C(=O)N[C@@H](CC(C)C)C(=O)N[C@@H](CO)C(=O)N[C@H](C(=O)N[C@H](C(=O)N[C@@H](CCC(N)=O)C(=O)N1CCC[C@H]1C(=O)N[C@@H](CC(N)=O)C(=O)N[C@@H](CCCCN)C(=O)N[C@@H](CC(C)C)C(=O)N1CCC[C@H]1C(N)=O)C(C)C)[C@@H](C)O)[C@@H](C)CC [DOT1L 16 mer] (Ac-LPISIPLSTVQPNKLP-NH2)
IC50 (AF9 [2]): 320 nM
Kd (MBP-ENL (489-559)): 900 nM
binding to the MBP tag only (MBP tag): did not show any binding
IC50 (ENL): 1560 nM
Ki (AF9 [3]): 80 nM

biotinylated DOT1L 10-mer peptide: DOT1L 10-mer peptide with N-terminal biotin group (LPISIPLSTV-NH2; not fully specified (N-terminus); also: N-terminal biotin coupled to lysine and two β-alanine spacer, order not given here)
binding to cellular CxxC-AF9 (pull-down) (Myc-CxxC-AF9): recognizes and binds to the cellular CxxC-AF9 protein in a dose dependent manner
